The numbers were not newly measured in patent US20250295763A1 (priority 2024, published 2025), which cites them from elsewhere.

SMILES strings stand for the structures.

For the data set the following is noted: background statement; cited from earlier work.

As to `CCC(C)C(CC(O)CC(=O)OC1C(C)OC(OC(=O)C23CCC(C)(C)CC2C2=CCC4C5(C)CCC(OC6OC(C(=O)O)C(O)C(OC7OCC(O)C(O)C7O)C6OC6OC(CO)C(O)C(O)C6O)C(C)(C=O)C5CCC4(C)C2(C)CC3O)C(OC2OC(C)C(OC3OCC(O)C(OC4OCC(O)(CO)C4O)C3O)C(OC3OC(CO)C(O)C(O)C3O)C2O)C1O)OC(=O)CC(O)CC(OC1OC(COC2OC(C)C(O)C(O)C2O)C(O)C1O)C(C)CC` (centres unmarked) [QS-17], the solubility in water result is given as “water-soluble”.

`CCC(C)C(CC(O)CC(=O)OC1C(C)OC(OC(=O)C23CCC(C)(C)CC2C2=CCC4C5(C)CCC(OC6OC(C(=O)O)C(O)C(OC7OCC(O)C(O)C7O)C6OC6OC(CO)C(O)C(O)C6O)C(C)(C=O)C5CCC4(C)C2(C)CC3O)C(OC2OC(C)C(OC3OCC(O)C(OC4OCC(O)(CO)C4O)C3O)C(OC3OC(CO)C(O)C(O)C3O)C2O)C1O)OC(=O)CC(O)CC(OC1OC(CO)C(O)C1O)C(C)CC` (centres unmarked) [QS-18]: the solubility in water result is recorded as “water-soluble”.
